Source: PMC12455130, “Multifunctional molecular agent for tau-targeted combinational therapy of Alzheimer’s disease” (The Journal of Biological Chemistry, 2025)

Key:
[1] = design: method as in PMID 19496588; conditions: cited from earlier work
[2] = test system: tau protein; conditions: cited from earlier work
[3] = target: T1, tau peptide R3 (Homo sapiens, UniProt P10636); assay: ThS assay, heparin-induced R3 aggregation (kinetics and dose-response); format: biochemical; conditions: 80 μM compound, 15 μM R3, 3.8 μM heparin, 37 °C, 3 h
T1 construct: R3 (^306VQIVYK PVDLSK VTSKCG SLGNIH HKPGGG Q^336) and rabbit anti-tau antibody were purchased from MuJin; purchased MuJin
T1 sequence (P10636 623-653 limits assumed): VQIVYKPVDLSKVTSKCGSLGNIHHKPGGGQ
Method: The inhibition effect of 4GA–2GA on R3 aggregation was explored by thioflavin S (ThS) assay ([24]). In general, the kinetics of R3 aggregation in the absence or the presence of 4GA, 2GA was assessed by measuring the emission intensity of ThS at 500 nm, which reflects the amount of R3 aggregates. As the control experiments, the aggregation kinetics of 4ME and GA were also carried out. While induced by heparin, R3 aggregates rapidly at 37 °C, and the fluorescence of ThS reaches a maximum after an average time of 200 s (Fig. 4A). Based on the aforementioned conditions, the inhibitory ability of our synthetic compounds at three different concentrations (5, 10, and 40 μM) was tested.
Next, the dose–response inhibitory effects of our synthetic compounds on R3 aggregation were investigated. The detailed experimental operation was descripted in ESI. […] The apparent values of IC50 were calculated according to the dose−response curve.
Tau peptide R3 was adjusted to a concentration of 15 μM using 50 mM Tris−HCl buffer (pH 7.4), ThS (final concentration of 10 μM), and different amounts of 4GA, 2GA, 4ME, and GA (final concentration of 0, 5, 10, and 40 μM) as the aggregation inhibitor were added in1to the reaction mixture. Aggregation was induced by adding heparin to the solution (final concentration of 3.8 μM); the kinetics of each sample was immediately monitored by a fluorescence spectrophotometer with a 10-mm quartz cell at 440/500 nm (excitation/emission). A circulating water bath was necessary to maintain the temperature at 37 °C.
Tau peptide R3 was adjusted to a concentration of 15 μM using 50 mM Tris–HCl buffer (pH 7.4). Different amounts of 4GA, 2GA, 4ME, and GA (final concentration of 0, 1, 2, 4, 6, 10, 15, 20, 30, 40, 60, or 80 μM) as the aggregation inhibitors were added into the reaction mixture. Aggregation was induced by adding heparin to the solution (final concentration of 3.8 μM), After 3 h incubation at 37°C, ThS (final concentration of 10 μM) was added, and the fluorescence intensity at 440/500 nm (excitation/emission) was recorded on Hitachi F-7000 with a 10-mm quartz cell. The dose−response inhibitory effects of R3 aggregation were expressed by the aggregation percentage, which was calculated according to the following (Formula 4.3):(4.3) aggregation%=F-F0/Ft-F0×100
where F0 = fluorescence intensity of R3 monomer, Ft = fluorescence intensity of R3 aggregate, and F = fluorescence intensity of R3 aggregate in the presence of inhibitors. The IC50 values were also calculated according to the dose−response inhibitory effects.
Tau peptide R3 was adjusted to a concentration of 15 μM using Tris−HCl buffer (pH 7.4), and the synthetic compounds (4GA, 2GA, together with 4ME, GA as the comparison) at different concentrations, as aggregation inhibitor, were added into the reaction mixture separately. Aggregation was induced by heparin, and incubated at 37 °C for 3 h. By introducing fluorescence probe ThS, the dose−response inhibitory effects on R3 aggregation were recorded, according to normalized ThS fluorescence intensity (excitation: 440 nm, emission: 500 nm).
Figure S14. Inhibitory effects of N-substituted Azacrown on heparin-induced R3 aggregation, exermined by ThS fluorescence: 15 μM R3 and 3.8 μM heparin with cyclen, 1ME, 2ME, 3ME, and 4ME (80 μM) was incubated respectively at 37°C for 3h. 10 μM ThS was added to each of the solution, Spectra of ThS fluorescence were recorded at Ex440 nm.

[4] = target: T1, tau peptide R3; assay: ThS assay, Cu2+-promoted heparin-induced R3 aggregation; format: biochemical; conditions: R3 15 μM, Cu2+ 3.8 μM, compound 10 μM, heparin 3.8 μM, 3 h
From the text: Metal ions, especially Cu^2+, are believed to be highly compatible with cysteine residues of tau peptide as a coordination center ([26]). Accompanied by the formation of intermolecular S–Cu–S bridging coordination bond, or intermolecular disulfide bond, these metal ions have been proven to promote tau aggregation ([27]). After confirming that 4GA and 2GA can effectively remove copper ions through coordination, we further explore their effects on R3 aggregation under the promotion of Cu^2+. […] Heparin was used to initiate the aggregation ([15]). […] As a comparison, the effects of the precursor compounds: 4ME, 3ME, 2ME, and 1ME, on Cu^2+-promoted R3 aggregation were also examined (Fig. S15).
Figure 5 Kinetic curves and TEM image of R3 aggregation with 4GA or 2GA.A, kinetic curves of the R3 (15 μM) aggregation monitored by ThS fluorescence assay in different conditions. B, ThS fluorescence intensity of R3 (15 μM) incubated for 3 h in different conditions. C, TEM image of R3 fibrils in different conditions. Negatively stained with uranyl acetate. Scale bar represents 200 nm. Final concentrations of R3, Cu^2+, and inhibitors are 15, 3.8, and 10 μM, respectively. All aggregations were initiated by heparin (3.8 μM). 2GA, (4,10-dimethyl-1,4,7,10-tetraazacyclododecane-1,7-diyl)bis((3,4,5-trihydroxyphenyl)methanone); 4GA, (1,4,7,10-tetraazacyclododecane-1,4,7,10-tetrayl)tetrakis((3,4,5-trihydroxyphenyl)methanone); TEM, transmission electron microscopy; ThS, thioflavin S.
The promotion of Cu^2+ on R3 aggregation was also inspected, similar to the aforementioned operation, unless that 3.8 μM Cu^2+ was also included, and using 50 mM Hepes (pH 7.4) as the buffer solution.
Fig. S15 ThS fluorescence intensity of R3 (15 µM) incubated for 3 h. Final concentrations of R3, Cu^2+, and compounds are 15, 3.8 and 10 µM, respectively. All aggregations were initiated by heparin (3.8 µM).

[5] = target: T1, tau peptide R3; design: method as in PMID 23442089; conditions: reported earlier; read-out: IC50 on R3 aggregation; cited from earlier work

C1CNCCNCCNCCN1 [cyclen, 1,4,7,10-tetraazacyclododecane]
log KCu-cyclen (thermodynamic stability) [1]: 24.8

C=C(C)[C@@H]1CCC(C)=C[C@H]1c1c(O)cc(CCCCC)cc1O [cannabidiol]
binding ability to tau protein [2]: 42100 M⁻¹

CN1CCNCCN(C)CCN(C)CC1 [3ME, 1,4,7-trimethyl-1,4,7,10-tetraazacyclododecane]
effect on heparin-induced R3 aggregation (ThS fluorescence at 500 nm) [3]: did not hinder the aggregation of R3 peptides
ThS fluorescence intensity of R3 aggregation in the presence of Cu2+ [4]: only to a level close to the case of R3 aggregation in the absence of Cu^2+

Nc1nc(=O)c2nc(CNc3ccc(C(=O)N[C@@H](CCC(=O)O)C(=O)O)cc3)cnc2[nH]1 [folic acid]
binding ability to tau protein [2]: 230000 M⁻¹

tannic acid
IC50 [5]: 3.5 µM

1,4,7-trimethyl-1,4,7,10-tetraazacyclododecane [2ME]
effect on heparin-induced R3 aggregation (ThS fluorescence at 500 nm) [3]: did not hinder the aggregation of R3 peptides
ThS fluorescence intensity of R3 aggregation in the presence of Cu2+ [4]: only to a level close to the case of R3 aggregation in the absence of Cu^2+

CN1CCNCCNCCNCC1 [1ME, 1-methyl-1,4,7,10-tetraazacyclododecane]
effect on heparin-induced R3 aggregation (ThS fluorescence at 500 nm) [3]: did not hinder the aggregation of R3 peptides
ThS fluorescence intensity of R3 aggregation in the presence of Cu2+ [4]: only to a level close to the case of R3 aggregation in the absence of Cu^2+
